Reference: patent US9045501B2, “5-HT3 receptor modulators, methods of making, and use thereof” (Albany Molecular Research, Inc., priority 2009, dated 2015)

What follows are compounds tested against h5-HT3A receptor (Homo sapiens (Human), UniProt P46098) (assay: Agonist activity at recombinant human 5-HT3A receptors, [Ca2+]i in HEK293 cells). Conditions: at 1 μM, normalized to the response of 5-HT (5-HT response = 100% at 3 μM); NR = no response.
Assay type: cell-based
Experimental: Human embryonic kidney (HEK293) cells expressing the h5-HT3A receptor subunit were seeded directly into poly-D-lysine coated, black-walled, clear bottomed, 96 well plates with approximately 1×10^5 cells per well. After 48 hrs incubation in DMEM growth media (100 μL), cells were washed twice (each 200 μL) in Hank's balanced salt solution (Invitrogen) before incubation (1 hr) with Fluo-4 acetoxymethyl (AM) ester (100 μL, 2.5 μM; Molecular Probes). Cells were washed twice (each 200 μL) in Hank's balanced salt solution and incubated for a further 30 min in Hank's balanced salt solution (100 μL) prior to assay (25° C.). Alteration in [Ca^2+]i was measured (relative fluorescence units [RFU]) using a Flexstation (excitation 488 nm and emission 515 nm; frequency of recording 3 sec). After recording for at least 80 sec, vehicle (Hank's balanced salt solution) or drug was automatically administered to the well (50 μL). Baseline was calculated from the 5 data points immediately prior to the first drug administration and the maximum response was that achieved over the 240 sec following drug administration. In all experiments the muscarinic receptor agonist carbachol (1 mM) was added 240 sec after the test drug administration.

h5-HT3A receptor, sequence (P46098 24-478): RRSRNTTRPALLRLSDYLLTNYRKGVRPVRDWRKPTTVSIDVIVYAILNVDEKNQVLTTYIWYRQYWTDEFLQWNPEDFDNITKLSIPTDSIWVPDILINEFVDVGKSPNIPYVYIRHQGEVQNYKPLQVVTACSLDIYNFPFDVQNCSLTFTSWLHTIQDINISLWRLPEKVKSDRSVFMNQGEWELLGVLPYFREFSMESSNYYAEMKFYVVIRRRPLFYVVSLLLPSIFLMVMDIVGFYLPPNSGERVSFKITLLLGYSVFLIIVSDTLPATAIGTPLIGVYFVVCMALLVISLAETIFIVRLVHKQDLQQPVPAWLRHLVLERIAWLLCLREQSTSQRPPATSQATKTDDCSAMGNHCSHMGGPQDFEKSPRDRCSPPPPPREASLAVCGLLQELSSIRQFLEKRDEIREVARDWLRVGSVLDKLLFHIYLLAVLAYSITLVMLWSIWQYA

Compound	HEK293 h5-HT3A % agonist response
Cc1cn2c3c(cccc13)C(=O)N([C@@H]1CN3CCC1CC3)CC2 [Example 3, (S)-7-methyl-2-(quinuclidin-3-yl)-3,4-dihydro-[1,4]diazepino[6,7,1-hi]indol-1(2H)-one]	13%
O=C1c2cccc3[nH]c(=O)n(c23)CCN1[C@@H]1CN2CCC1CC2 [Example 25, 6-((S)-quinuclidin-3-yl)-5,6-dihydroimidazo[4,5,1-jk][1,4]benzodiazepine-2,7(1H, 4H)-dione]	83%
O=C1c2cccc3ccn(c23)CCN1[C@@H]1CN2CCC1CC2 [Example 2, (S)-2-(quinuclidin-3-yl)-3,4-dihydro-[1,4]diazepino[6,7,1-hi]indol-1(2H)-one]	7%

Each compound was assayed against human 5-HT3 receptor (Homo sapiens (Human), UniProt P46098) (assay: Radioligand binding assay (SPA format), affinity for the human 5-HT3 receptor). Conditions: not given.
Experimental: The relative affinity of the various compounds for the human 5-HT3 receptor was measured in a radioligand binding assay, using a scintillation proximity assay (SPA) format. Test compounds were dissolved to 10 mM in 100% DMSO, then serially diluted at 10× assay concentrations in 100% DMSO in 96-well polypropylene plates and further diluted to 4× assay concentrations with the assay buffer. Samples were incubated in 50 mM Tris-HCl, pH 7.5, 3 mM MgCl2, 1 mM EDTA and 10% DMSO with 10 nM [9-methyl-^3H]BRL-43694 (Perkin Elmer), 3 μg of human 5-HT3 receptor membranes (Perkin Elmer) and 0.5 mg/mL SPA beads (WGA PVT, Amersham Biosciences) in a final volume of 0.2 mL. Binding reactions were set up in wells of PicoPlates-96 (Perkin Elmer) by adding consecutively 50 μL of each competing compound or buffer, SPA beads, the radioligand and 5-HT3 receptor membranes. After an overnight incubation at room temperature on a Nutator mixer, plates were centrifuged for 15 min at 1,500 rpm, followed by incubation in the dark for 30 min. Radioactivity was counted in the TopCount microplate counter (Perkin Elmer) for 5 min. Total binding control contained compound dilution buffer only; nonspecific binding was determined in the presence of 30 μM MDL-72222. Specific binding was determined by subtracting nonspecific binding from total binding. All experiments were performed in duplicate using ten concentrations of competing ligand, with ondansetron included as a control in every run. IC50 values were determined from specific binding data using XLfit4.1 curve fitting software from IDBS Ltd. The inhibition constant (Ki) was calculated from the Cheng Prusoff equation: (Ki=IC50/(1+(L/KD)), where L=concentration of radioligand in the assay, and KD=affinity of the radioligand for the receptor.

human 5-HT3 receptor, sequence (P46098 24-478): as above

Compound	Ki
COc1ccc(Cn2cc3c4c(cccc42)C(=O)N(CC24CCN(CC2)CC4)CC3)cc1 [Example 27, 6-(4-methoxybenzyl)-2-(quinuclidin-4-ylmethyl)-2,3,4,6-tetrahydro-1H-azepino[5,4,3-cd]indol-1-one]	8 nM
COc1cc2c3c(cnn3CCN([C@@H]3CN4CCC3CC4)C2=O)c1 [Example 10, (S)-4-methoxy-7-(quinuclidin-3-yl)-8,9-dihydro-[1,4]diazepino[6,7,1-hi]indazol-6(7H)-one]	14 nM

Same assay, conditions: 10 μM compound, radioligand binding; read-out: h5-HT3A % inhibition @ 10 μM

Compound	inhibition at 10 µM
CC(C)c1nc2cccc3c2n1CCN([C@@H]1CN2CCC1CC2)C3=O [Example 19, 2-isopropyl-6-((S)-quinuclidin-3-yl)-5,6-dihydroimidazo[4,5,1-jk][1,4]benzodiazepin-7(4H)-one]	74%
O=C1c2cccc3nc(-c4ccccc4)n(c23)CCN1[C@H]1CN2CCC1CC2 [Example 20, 2-phenyl-6-((R)-quinuclidin-3-yl)-5,6-dihydroimidazo[4,5,1-jk][1,4]benzodiazepin-7(4H)-one]	23%
CC(C)c1nc2cccc3c2n1CCN([C@H]1CN2CCC1CC2)C3=O [Example 18, 2-isopropyl-6-((R)-quinuclidin-3-yl)-5,6-dihydroimidazo[4,5,1-jk][1,4]benzodiazepin-7(4H)-one]	51%
O=C1c2cccc3nc(-c4ccc(F)cc4)n(c23)CCN1[C@@H]1CN2CCC1CC2 [Example 22, 2-(4-fluorophenyl)-6-((S)-quinuclidin-3-yl)-5,6-dihydroimidazo[4,5,1-jk][1,4]benzodiazepin-7(4H)-one]	69%

Same assay, conditions: [9-methyl-3H]BRL-43694 10 nM, human 5-HT3 receptor membranes, Cheng Prusoff; read-out: h5-HT3A Ki

Compound	Ki
O=C1c2cccc3[nH]cc(c23)CCN1CC12CCN(CC1)CC2 [Example 28, 2-(quinuclidin-4-ylmethyl)-2,3,4,6-tetrahydro-1H-azepino[5,4,3-cd]indol-1-one]	30 nM
O=C1c2cc(Cl)cc3cnn(c23)CCN1[C@@H]1CN2CCC1CC2 [Example 8, (S)-4-chloro-7-(quinuclidin-3-yl)-8,9-dihydro-[1,4]diazepino[6,7,1-hi]indazol-6(7H)-one]	0.5 nM
O=C1c2cccc3nc(-c4ccccc4Cl)n(c23)CCN1[C@@H]1CN2CCC1CC2 [Example 23, 2-(2-chlorophenyl)-6-((S)-quinuclidin-3-yl)-5,6-dihydroimidazo[4,5,1-jk][1,4]benzodiazepin-7(4H)-one]	206 nM
O=C1c2cccc3cnn(c23)CCN1CC12CCN(CC1)CC2 [Example 32, 7-(quinuclidin-4-ylmethyl)-8,9-dihydro-[1,4]diazepino[6,7,1-hi]indazol-6(7H)-one]	73 nM
O=C1c2cccc3nc(-c4ccccc4)n(c23)CCN1[C@@H]1CN2CCC1CC2 [Example 21, 2-phenyl-6-((S)-quinuclidin-3-yl)-5,6-dihydroimidazo[4,5,1-jk][1,4]benzodiazepin-7(4H)-one]	406 nM
Cc1cc2c3c(cnn3CCN([C@@H]3CN4CCC3CC4)C2=O)c1 [Example 11, (S)-4-methyl-7-(quinuclidin-3-yl)-8,9-dihydro-[1,4]diazepino[6,7,1-hi]indazol-6(7H)-one]	0.8 nM
Cc1cn2c3c(cccc13)C(=O)N([C@@H]1CN3CCC1CC3)CC2 [Example 3, (S)-7-methyl-2-(quinuclidin-3-yl)-3,4-dihydro-[1,4]diazepino[6,7,1-hi]indol-1(2H)-one]	5 nM
O=C1c2cccc3[nH]c(=O)n(c23)CCN1[C@@H]1CN2CCC1CC2 [Example 25, 6-((S)-quinuclidin-3-yl)-5,6-dihydroimidazo[4,5,1-jk][1,4]benzodiazepine-2,7(1H, 4H)-dione]	7 nM
O=C1c2cccc3c2N(CCN1[C@@H]1CN2CCC1CC2)S(=O)(=O)N3 [Example 26, 6-((S)-quinuclidin-3-yl)-5,6-dihydro-1H-[1,2,5]thiadiazolo[4,3,2-jk][1,4]benzodiazepin-7(4H)-one 2,2-dioxide]	701 nM
Cc1cn2c3c(cc(Cl)cc13)C(=O)N([C@@H]1CN3CCC1CC3)CC2 [Example 4, (S)-9-chloro-7-methyl-2-(quinuclidin-3-yl)-3,4-dihydro-[1,4]diazepino[6,7,1-hi]indol-1(2H)-one]	0.2 nM
O=C1c2cccc3ccn(c23)CCN1[C@H]1CN2CCC1CC2 [Example 1, (R)-2-(quinuclidin-3-yl)-3,4-dihydro-[1,4]diazepino[6,7,1-hi]indol-1(2H)-one]	74 nM
O=C1c2cc(F)cc3cnn(c23)CCN1[C@@H]1CN2CCC1CC2 [Example 9, (S)-4-fluoro-7-(quinuclidin-3-yl)-8,9-dihydro-[1,4]diazepino[6,7,1-hi]indazol-6(7H)-one]	6 nM
O=C1c2cccc3ncn(c23)CCN1[C@@H]1CN2CCC1CC2 [Example 13, 6-((S)-quinuclidin-3-yl)-5,6-dihydroimidazo[4,5,1-jk][1,4]benzodiazepin-7(4H)-one]	32 nM
O=C1c2cccc3ccn(c23)CCN1[C@@H]1CN2CCC1CC2 [Example 2, (S)-2-(quinuclidin-3-yl)-3,4-dihydro-[1,4]diazepino[6,7,1-hi]indol-1(2H)-one]	4 nM
O=C1c2cccc3ccn(c23)CCCN1[C@@H]1CN2CCC1CC2 [Example 6, (S)-2-(quinuclidin-3-yl)-2,3,4,5-tetrahydro-1H-[1,5]diazocino[3,2,1-hi]indol-1-one]	205 nM
O=C1c2cc(O)cc3cnn(c23)CCN1[C@@H]1CN2CCC1CC2 [Example 12, (S)-4-hydroxy-7-(quinuclidin-3-yl)-8,9-dihydro-[1,4]diazepino[6,7,1-hi]indazol-6(7H)-one]	2 nM
CCc1nc2cccc3c2n1CCN([C@@H]1CN2CCC1CC2)C3=O [Example 17, 2-ethyl-6-((S)-quinuclidin-3-yl)-5,6-dihydroimidazo[4,5,1-jk][1,4]benzodiazepin-7(4H)-one]	130 nM
O=C1c2cccc3ccn(c23)CCCN1[C@H]1CN2CCC1CC2 [Example 5, (R)-2-(quinuclidin-3-yl)-2,3,4,5-tetrahydro-1H-[1,5]diazocino[3,2,1-hi]indol-1-one]	416 nM

Same assay, conditions: read-out: h5-HT3A % inhibition @ 10 μM

Compound	inhibition at 10 µM
Cc1nc2cccc3c2n1CCN([C@H]1CN2CCC1CC2)C3=O [Example 14, 2-methyl-6-((R)-quinuclidin-3-yl)-5,6-dihydroimidazo[4,5,1-jk][1,4]benzodiazepin-7(4H)-one]	40%
O=C1c2cccc3[nH]c(=O)n(c23)CCN1[C@H]1CN2CCC1CC2 [Example 24, 6-((R)-quinuclidin-3-yl)-5,6-dihydroimidazo[4,5,1-jk][1,4]benzodiazepine-2,7(1H, 4H)-dione]	75%
Cc1nc2cccc3c2n1CCN([C@@H]1CN2CCC1CC2)C3=O [Example 15, 2-methyl-6-((S)-quinuclidin-3-yl)-5,6-dihydroimidazo[4,5,1-jk][1,4]benzodiazepin-7(4H)-one]	80%
CCc1nc2cccc3c2n1CCN([C@H]1CN2CCC1CC2)C3=O [Example 16, 2-ethyl-6-((R)-quinuclidin-3-yl)-5,6-dihydroimidazo[4,5,1-jk][1,4]benzodiazepin-7(4H)-one]	39%
